Source: patent US20260199323A1, “LIGAND COMPOUNDS FOR E3 UBIQUITIN LIGASE, PROTEIN DEGRADERS DEVELOPED ON BASIS OF LIGAND COMPOUNDS, AND USES THEREOF” (GLUETACS THERAPEUTICS (SHANGHAI) CO., LTD., priority 2021, published 2026)
Where two headings read alike, the source gives them in different places.

Assays:
CCRF-CEM = test: CCK-8 tumor cell proliferation, CCRF-CEM; assay type: cell-based, Human; settings: Homo sapiens, CCRF-CEM, read-out: IC50 inhibiting proliferation of tumor cells, CCRF-CEM
Procedure, shortened: (§1)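 Viability determined colorimetrically with CCK-8 following compound treatment. Dosing began 24 h post-plating using ten 5-fold dilutions capped at 10 μM; growth-inhibition curves yielded IC50.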

Hep3B2.7-1 = test: CCK-8 tumor cell proliferation, Hep3B2.7-1; assay type: cell-based, Human; settings: Homo sapiens
Protocol: (§2) The tumor cells used herein were cultured in a cell culture medium listed in table 4 at 37° C. in an incubator with 5% CO2. Prior to experimentation, all cells used were correctly identified by STR profiling, and tested negative for mycoplasma through routine screenings.
(§3) IC50 values of the compounds of the present disclosure (including the compounds in Tables 1 and 3, and compounds of examples) were measured using the Meilun Cell Counting Kit-8 kit from Dalian Meilun Biotech Co., Ltd. Assay details are as follows: tumor cells were seeded in a 96-well plate at a density listed in Table 5. After 24 h, 100 μL of the inoculated cells were treated with 0.5 μL of the compounds of the present disclosure (including the compounds in Tables 1 and 3, and compounds of examples) at 10 different successively decreasing concentrations (starting at the highest concentration of 10 μM; 5-fold serial dilutions). After the cells were treated with the compounds of the present disclosure for a period of time, the cell viability detection reagent was added to the culture medium for cell viability assessment according to the instructions provided with the CCK-8 kit. […] The growth inhibition of the compounds of the present disclosure on cells was plotted by Prism Graphpad software, and the IC50 values of the compounds of the present disclosure were calculated therefrom.

MM.1S = test: CCK-8 tumor cell proliferation, MM.1S; assay type: cell-based; settings: Homo sapiens, MM1.S; Table 18, FAK inhibitor based; MM.1S; read-out: IC50 inhibiting proliferation of tumor cells, MM.1S
Procedure, shortened: as §1

SW620 = test: CCK-8 tumor cell proliferation, SW620; assay type: cell-based, Human; settings: Homo sapiens, SW-620, SW620, read-out: IC50 inhibiting proliferation of tumor cells, SW620
Procedure, shortened: as §1

CAL-62 = test: CCK-8 tumor cell proliferation, CAL-62; assay type: cell-based, Human; settings: Homo sapiens, CAL-62, read-out: IC50 inhibiting proliferation of tumor cells, CAL-62
Procedure, shortened: as §1

Kasumi-1 = test: CCK-8 tumor cell proliferation, Kasumi-1; assay type: cell-based, Human; settings: Homo sapiens, Kasumi-1, read-out: IC50 inhibiting proliferation of tumor cells, Kasumi-1
Protocol: as §2, §3

Jurkat = test: CCK-8 tumor cell proliferation, Jurkat; assay type: cell-based, Human; settings: Homo sapiens, read-out: IC50 inhibiting proliferation of tumor cells, Jurkat
Procedure, shortened: as §1

MM.1R = test: CCK-8 tumor cell proliferation, MM.1R; assay type: cell-based; settings: read-out: IC50 inhibiting proliferation of tumor cells, MM.1R
Protocol: as §2, §3

LNcap = test: CCK-8 tumor cell proliferation, LNcap; assay type: cell-based, Human; settings: Homo sapiens; Table 19, IRAK4 inhibitor based; Lncap; read-out: IC50 inhibiting proliferation of tumor cells, Lncap
Protocol: as §2, §3

[1] = Table 19, IRAK4 inhibitor based, Hep3B2.7-1, read-out: IC50 inhibiting proliferation of tumor cells, Hep3B2.7-1
[2] = Table 19, IRAK4 inhibitor based
[3] = Table 22, NTRK inhibitor based, HEP3B2.7-1, read-out: IC50 inhibiting proliferation of tumor cells, HEP3B2.7-1

| Compound | IC50 (Hep3B2.7-1; [1]) [nM] | IC50 (Kasumi-1; [2]) [nM] | IC50 (Jurkat; [2]) [nM] | IC50 (CCRF-CEM; [2]) [nM] | IC50 (LNcap) [nM] | also measured |
| --- | --- | --- | --- | --- | --- | --- |
| CNC(=O)c1ccccc1Nc1cc(Nc2cc(C)c(C3CCN(Cc4ccc5c(c4)CN(C4CCC(=O)NC4=O)C5=O)CC3)cc2OC(C)C)ncc1C(F)(F)F (centres unmarked) [GT-04078, 2-((2-((4-(1-((2-(2,6-dioxopiperidin-3-yl)-1-oxoisoindolin-5-yl)methyl)piperidin-4-yl)-2-isopropoxy-5-methylphenyl)amino)-5-(trifluoromethyl)pyridin-4-yl)amino)-N-methylbenzamide] | – | – | – | – | – | IC50 (CCRF-CEM; Table 18, FAK inhibitor based): < 50 nM; IC50 (Hep3B2.7-1; Table 18, FAK inhibitor based, HEP3B2.7-1, read-out: IC50 inhibiting proliferation of tumor cells, HEP3B2.7-1): < 50 nM; IC50 (MM.1S): < 50 nM; IC50 (SW620; Table 18, FAK inhibitor based): 100 to 500 nM; IC50 (CAL-62; Table 18, FAK inhibitor based): < 50 nM |
| O=C1CCC(N2Cc3cc(CN4CCN(c5ccc(-n6cc(NC(=O)c7coc(-c8ccnc(NCC(F)(F)F)c8)n7)c(C(F)F)n6)cc5)CC4)ccc3C2=O)C(=O)N1 (centres unmarked) [GT-04267, N-(3-(difluoromethyl)-1-(4-(4-((2-(2,6-dioxopiperidin-3-yl)-1-oxoisoindolin-5-yl)methyl)piperazin-1-yl)phenyl)-1H-pyrazol-4-yl)-2-(2-((2,2,2-trifluoroethyl)amino)pyridin-4-yl)oxazole-4-carboxamide] | 100 to 500 | 100 to 500 | 500 to 1000 | – | – | – |
| O=C1CCC(N2Cc3cc(CN4CCN(c5ccc(-n6cc(NC(=O)c7coc(-c8ccnc(NCC(F)(F)F)c8)n7)c(C(F)F)n6)cc5)CC4)c(F)cc3C2=O)C(=O)N1 (centres unmarked) [GT-04269, N-(3-(difluoromethyl)-1-(4-(4-((2-(2,6-dioxopiperidin-3-yl)-6-fluoro-1-oxoisoindolin-5-yl)methyl)piperazin-1-yl)phenyl)-1H-pyrazol-4-yl)-2-(2-((2,2,2-trifluoroethyl)amino)pyridin-4-yl)oxazole-4-carboxamide] | < 50 | 50 to 100 | 50 to 100 | 100 to 500 | 100 to 500 | IC50 (MM.1R; [2]): 100 to 500 nM |
| O=C1CCC(N2Cc3c(CN4CCC(n5cc(NC(=O)c6coc(-c7ccnc(NCC8CC8)c7)n6)c(C(F)F)n5)CC4)cccc3C2=O)C(=O)N1 (centres unmarked) [GT-04173, 2-(2-((cyclopropylmethyl)amino)pyridin-4-yl)-N-(3-(difluoromethyl)-1-(1-((2-(2,6-dioxopiperidin-3-yl)-1-oxoisoindolin-4-yl)methyl)piperidin-4-yl)-1H-pyrazol-4-yl)oxazole-4-carboxamide] | – | – | 500 to 1000 | 1000 to 5000 | 100 to 500 | IC50 (SW620; [2]): 1000 to 5000 nM; IC50 (CAL-62; [2]): 1000 to 5000 nM |
| O=C1CCC(N2Cc3c(ccc(CN4CCN(c5cccc(-c6cnn7ccc(N8CCC[C@@H]8c8cc(F)ccc8F)nc67)n5)CC4)c3F)C2=O)C(=O)N1 (stereo partly drawn) [GT-04263, 3-(5-((4-(6-(5-((R)-2-(2,5-difluorophenyl)pyrrolidin-1-yl)pyrazolo[1,5-a]pyrimidin-3-yl)pyridin-2-yl)piperazin-1-yl)methyl)-4-fluoro-1-oxoisoindolin-2-yl)piperidine-2,6-dione] | – | – | – | – | – | IC50 (CCRF-CEM; Table 22, NTRK inhibitor based): 50 to 100 nM; IC50 (Hep3B2.7-1; [3]): < 50 nM; IC50 (Kasumi-1; Table 22, NTRK inhibitor based): 500 to 1000 nM; IC50 (MM.1R; Table 22, NTRK inhibitor based): < 50 nM; IC50 (Jurkat; Table 22, NTRK inhibitor based): 100 to 500 nM |
| O=C1CCC(N2Cc3cc(CN4CCN(c5cccc(-c6cnn7ccc(N8CCC[C@@H]8c8cc(F)ccc8F)nc67)n5)CC4)ccc3C2=O)C(=O)N1 (stereo partly drawn) [GT-04262, 3-(5-((4-(6-(5-((R)-2-(2,5-difluorophenyl)pyrrolidin-1-yl)pyrazolo[1,5-a]pyrimidin-3-yl)pyridin-2-yl)piperazin-1-yl)methyl)-1-oxoisoindolin-2-yl)piperidine-2,6-dione] | – | – | – | – | – | IC50 (CCRF-CEM; Table 22, NTRK inhibitor based): < 50 nM; IC50 (Hep3B2.7-1; [3]): < 50 nM; IC50 (Kasumi-1; Table 22, NTRK inhibitor based): 100 to 500 nM; IC50 (MM.1R; Table 22, NTRK inhibitor based): < 50 nM; IC50 (Jurkat; Table 22, NTRK inhibitor based): 100 to 500 nM |
| O=C1CCC(N2C(=O)c3ccc(CN4CCC(n5cc(NC(=O)c6coc(-c7ccnc(NCC(F)(F)F)c7)n6)c(C(F)F)n5)CC4)cc3C2=O)C(=O)N1 (centres unmarked) [GT-04088, N-(3-(difluoromethyl)-1-(1-((2-(2,6-dioxopiperidin-3-yl)-1,3-dioxoisoindolin-5-yl)methyl)piperidin-4-yl)-1H-pyrazol-4-yl)-2-(2-((2,2,2-trifluoroethyl)amino)pyridin-4-yl)oxazole-4-carboxamide] | – | – | < 50 | < 50 | 100 to 500 | IC50 (SW620; [2]): 100 to 500 nM; IC50 (CAL-62; [2]): < 50 nM |
| CC(C)(O)c1cc2nc(C3CCN(Cc4cc5c(cc4F)C(=O)N(C4CCC(=O)NC4=O)C5)CC3)sc2cc1NC(=O)c1cccc(C(F)(F)F)n1 (centres unmarked) [GT-04506, N-(2-(1-((2-(2,6-dioxopiperidin-3-yl)-6-fluoro-1-oxoisoindolin-5-yl)methyl)piperidin-4-yl)-5-(2-hydroxypropan-2-yl)benzo[d]thiazol-6-yl)-6-(trifluoromethyl)picolinamide] | – | – | 50 to 100 | 100 to 500 | 100 to 500 | – |
| O=C1CCC(N2C(=O)c3ccc(CN4CCN(c5ccc(-n6cc(NC(=O)c7coc(-c8ccnc(NCC(F)(F)F)c8)n7)c(C(F)F)n6)cc5)CC4)cc3C2=O)C(=O)N1 (centres unmarked) [GT-04272, N-(3-(difluoromethyl)-1-(4-(4-((2-(2,6-dioxopiperidin-3-yl)-1,3-dioxoisoindolin-5-yl)methyl)piperazin-1-yl)phenyl)-1H-pyrazol-4-yl)-2-(2-((2,2,2-trifluoroethyl)amino)pyridin-4-yl)oxazole-4-carboxamide] | 500 to 1000 | 50 to 100 | 1000 to 5000 | – | 100 to 500 | IC50 (MM.1R; [2]): 500 to 1000 nM |
| O=C1CCC(N2Cc3c(ccc(CN4CCN(c5ccc(-n6cc(NC(=O)c7coc(-c8ccnc(NCC(F)(F)F)c8)n7)c(C(F)F)n6)cc5)CC4)c3F)C2=O)C(=O)N1 (centres unmarked) [GT-04268, N-(3-(difluoromethyl)-1-(4-(4-((2-(2,6-dioxopiperidin-3-yl)-4-fluoro-1-oxoisoindolin-5-yl)methyl)piperazin-1-yl)phenyl)-1H-pyrazol-4-yl)-2-(2-((2,2,2-trifluoroethyl)amino)pyridin-4-yl)oxazole-4-carboxamide] | 500 to 1000 | 100 to 500 | 500 to 1000 | – | – | – |
| O=C1CCC(N2Cc3cc(CN4CCN(c5ccc(-n6cc(NC(=O)c7coc(-c8ccnc(NCC(F)(F)F)c8)n7)c(C(F)F)n6)cc5)CC4)cc(F)c3C2=O)C(=O)N1 (centres unmarked) [GT-04270, N-(3-(difluoromethyl)-1-(4-(4-((2-(2,6-dioxopiperidin-3-yl)-7-fluoro-1-oxoisoindolin-5-yl)methyl)piperazin-1-yl)phenyl)-1H-pyrazol-4-yl)-2-(2-((2,2,2-trifluoroethyl)amino)pyridin-4-yl)oxazole-4-carboxamide] | 500 to 1000 | 100 to 500 | 100 to 500 | – | – | – |
| O=C1CCC(N2C(=O)c3ccc(CN4CCC(n5cc(NC(=O)c6coc(-c7ccnc(NCC8CC8)c7)n6)c(C(F)F)n5)CC4)cc3C2=O)C(=O)N1 (centres unmarked) [GT-04174, 2-(2-((cyclopropylmethyl)amino)pyridin-4-yl)-N-(3-(difluoromethyl)-1-(1-((2-(2,6-dioxopiperidin-3-yl)-1,3-dioxoisoindolin-5-yl)methyl)piperidin-4-yl)-1H-pyrazol-4-yl)oxazole-4-carboxamide] | – | – | 50 to 100 | < 50 | 500 to 1000 | IC50 (SW620; [2]): 100 to 500 nM; IC50 (CAL-62; [2]): < 50 nM |
